Experimental data taken from US4467086A, “Cephalosporin antibiotic” (Glaxo Group Limited, priority 1979, dated 1984).
Structures can show the parent of a compound that is named as a salt.

Experiments:
bacteria = assay: antibacterial properties: human serum effect, inoculum effect, bactericidal action; assay type: cell-based
Pseudomonas aeruginosa = assay: experimental infections in mice with Pseudomonas aeruginosa; assay type: in vivo
[1] = in vivo
Pseudomonas organisms = assay: antibacterial activity, Pseudomonas; assay type: cell-based; settings: organisms normally difficult to combat with β-lactam antibiotics
[2] = pharmacokinetics in human volunteers; assay type: in vivo
early clinical results = assay type: in vivo, human
Serratia = assay: antibacterial activity, Serratia; assay type: cell-based; settings: organisms normally difficult to combat with β-lactam antibiotics
[3] = storage stability of the solid; assay type: physicochemical
indolepositive Proteus = assay: antibacterial activity, indole-positive Proteus; assay type: cell-based; settings: organisms normally difficult to combat with β-lactam antibiotics
[4] = test system: gram-negative organisms, including many β-lactamase-producing gram-negative strains; settings: as described in UK Patent Specification No. 2025398, cited from earlier work
Providence = assay: antibacterial activity, Providence; assay type: cell-based; settings: organisms normally difficult to combat with β-lactam antibiotics
gram-negative bacteria = assay: experimental infections in mice with gram-negative bacteria; assay type: in vivo

## CC(C)(O/N=C(\C(=O)N[C@@H]1C(=O)N2C(C(=O)[O-])=C(C[n+]3ccccc3)CS[C@H]12)c1csc(N)n1)C(=O)O [ceftazidime, (6R,7R)-7-[(Z)-2-(2-aminothiazol-4-yl)-2-(2-carboxyprop-2-oxyimino)acetamido]-3-(1-pyridiniummethyl)ceph-3-em-4-carboxylate]
bacteria
  effect of human serum on antibacterial properties: not impaired
Pseudomonas aeruginosa
  protection against Pseudomonas aeruginosa infection: excellent protection
Pseudomonas aeruginosa; versus an aminoglycoside such as amikacin
  protection compared with aminoglycoside treatment: comparable
[1]
  distribution in the body: well distributed
Pseudomonas organisms
  activity against Pseudomonas: excellent activity
[2]
  serum levels after injection: high and long lasting
Early clinical results
  clinical antibiotic properties: reproduces in the clinic the excellent antibiotic properties
Serratia
  activity against Serratia: excellent activity
[3]; amorphous solid, especially at elevated temperatures
  stability: not particularly satisfactory
Indolepositive Proteus
  activity against indole-positive Proteus: excellent activity
[4]
  antibiotic activity spectrum: broad spectrum antibiotic activity
[4]; including many β-lactamase-producing gram-negative strains
  activity against gram-negative organisms: unusually high activity
Providence
  activity against Providence: excellent activity
gram-negative bacteria
  treatment of experimental infections: successfully treated

## CC(C)(O/N=C(\C(=O)N[C@@H]1C(=O)N2C(C(=O)[O-])=C(C[n+]3ccccc3)CS[C@H]12)c1csc(N)n1)C(=O)O [(6R,7R)-7-[(Z)-2-(2-aminothiazol-4-yl)-2-(2-carboxyprop-2-oxyimino)acetamido]-3-(1-pyridiniummethyl)ceph-3-em-4-carboxylate bishydrochloride]
[3]; crystalline form, stored for an extended period at a temperature of 50° C.
  stability: remarkably stable
